Assay results taken from the supplement of paper PMC10331698.
± gives the standard deviation of the averaged measurements.

What was measured:
Test in all cases: level (log10 ratio to DMSO vehicle control); higher = higher biomarker level / cell amount than vehicle control
[1] = compound: C=C(C)C(=O)OCCC(F)(F)C(F)(F)C(F)(F)C(F)(F)C(F)(C(F)(F)F)C(F)(F)F [(Perfluoro-5-methylhexyl)ethyl 2-methylprop-2-enoate]; details: in DMSO
Protocol: (§1)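 BioMAP Diversity Plus panel of 12 human primary cell co-culture systems (3C, 4H, LPS, SAg, BT, BF4T, BE3C, CASM3C, HDF3CGF, KF3CT, MyoF, Mphg). Compounds were added 1 h before stimulation and left for 24 h (MyoF 48 h; BT 72 h for soluble read-outs or 6 d for IgG). Biomarkers were read by ELISA, cytotoxicity by SRB, PBMC viability and proliferation by Alamar Blue. Each well value was divided by the mean of 8 DMSO control wells on the same plate and log10 transformed; duplicate blinded samples were tested at 4 concentrations.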

Pentafluoropropionamide = compound: NC(=O)C(F)(F)C(F)(F)F [Pentafluoropropionamide]; details: in DMSO
Protocol: as §1

Perfluoroheptanoic acid = compound: O=C(O)C(F)(F)C(F)(F)C(F)(F)C(F)(F)C(F)(F)C(F)(F)F [Perfluoroheptanoic acid]; details: in DMSO
Protocol: as §1

[2] = compound: O=C(O)C(F)(F)C(F)(F)C(F)F [4H-Perfluorobutanoic acid]; details: in DMSO
Protocol: as §1

Perfluoropropanoic acid = compound: O=C(O)C(F)(F)C(F)(F)F [Perfluoropropanoic acid]; details: in DMSO
Protocol: as §1

[3] = compound: OCC(F)(F)OC(F)(F)C(F)(F)OC(F)(F)CO [1H,1H,8H,8H-Perfluoro-3,6-dioxaoctane-1,8-diol]; details: in DMSO
Protocol: as §1

[4] = compound: OCCC(F)(F)C(F)(F)C(F)(F)C(F)(F)C(F)(F)C(F)(F)F [6:2 Fluorotelomer alcohol]; details: in DMSO
Protocol: as §1

[5] = compound: OCCCC(F)(F)C(F)(F)C(F)(F)C(F)(F)C(F)(F)C(F)(F)C(F)(F)F [7:3 Fluorotelomer alcohol]; details: 6700 nM; in DMSO
Protocol: as §1

| Test System | level (log10) ([1]; 6700 nM) | level (log10) ([1]; 20000 nM) | level (log10) (Pentafluoropropionamide; 6700 nM) | level (log10) (Pentafluoropropionamide; 20000 nM) | level (log10) (Pentafluoropropionamide; 60000 nM) | level (log10) (Perfluoroheptanoic acid; 6700 nM) | level (log10) (Perfluoroheptanoic acid; 20000 nM) | level (log10) (Perfluoroheptanoic acid; 60000 nM) | level (log10) ([2]; 6700 nM) | level (log10) ([2]; 20000 nM) | level (log10) ([2]; 60000 nM) | level (log10) (Perfluoropropanoic acid; 6700 nM) | level (log10) (Perfluoropropanoic acid; 20000 nM) | level (log10) (Perfluoropropanoic acid; 60000 nM) | level (log10) ([3]; 6700 nM) | level (log10) ([3]; 20000 nM) | level (log10) ([3]; 60000 nM) | level (log10) ([4]; 6700 nM) | level (log10) ([4]; 20000 nM) | level (log10) [5] |
| --- | --- | --- | --- | --- | --- | --- | --- | --- | --- | --- | --- | --- | --- | --- | --- | --- | --- | --- | --- | --- |
| LPS:CD106/VCAM-1 | 0.0045 ± 0.016 | -0.003 ± 0.035 | -0.041 ± 0.0014 | -0.021 ± 0.0099 | -0.0135 ± 0.018 | -0.014 ± 0.021 | -0.0155 ± 0.025 | -0.013 ± 0.025 | -0.018 ± 0.0071 | -0.0245 ± 0.011 | -0.002 ± 0.025 | -0.0105 ± 0.018 | -0.008 ± 0.02 | -0.0055 ± 0.022 | 0.0185 ± 0.033 | -0.02 ± 0.0042 | -0.013 ± 0.033 | -0.0045 ± 0.0078 | -0.0025 ± 0.011 | -0.031 ± 0.0085 |
| LPS:CD141/Thrombomodulin | 0.0055 ± 0.0092 | -0.0345 ± 0.021 | -0.0385 ± 0.00071 | -0.005 ± 0.0028 | -0.01 ± 0.0014 | -0.0115 ± 0.03 | 0.002 ± 0.011 | -0.035 ± 0.0099 | -0.009 | -0.012 ± 0.016 | -0.008 ± 0.013 | -0.003 ± 0.027 | -0.007 ± 0.0057 | 0.013 ± 0.0057 | 0.004 ± 0.021 | 0.021 ± 0.018 | -0.002 ± 0.014 | 0.002 ± 0.024 | 0.013 ± 0.0042 | -0.0025 ± 0.013 |
| LPS:CD142/Tissue Factor | 0.032 ± 0.014 | 0.006 ± 0.014 | 0.0095 ± 0.015 | -0.022 ± 0.034 | -0.0425 ± 0.046 | -0.0025 ± 0.005 | -0.007 ± 0.013 | 0.0245 ± 0.005 | -0.0205 ± 0.032 | 0.015 ± 0.033 | 0.0185 ± 0.0092 | 0.001 ± 0.0028 | 0.0055 ± 0.028 | 0.0235 ± 0.0078 | -0.006 ± 0.014 | -0.0155 ± 0.021 | -0.0135 ± 0.0035 | 0.0285 ± 0.026 | -0.007 ± 0.013 | -0.0245 ± 0.0064 |
| LPS:CXCL8/IL-8 | 0.006 ± 0.045 | 0.016 ± 0.047 | -0.009 ± 0.013 | -0.0115 ± 0.00071 | 0.0285 ± 0.037 | 0.0085 ± 0.033 | 0.027 ± 0.03 | 0.105 ± 0.059 | -0.0155 ± 0.019 | -0.008 ± 0.02 | 0.018 ± 0.024 | -0.013 ± 0.02 | -0.001 ± 0.0085 | -0.002 ± 0.0071 | 0.002 ± 0.0071 | 0.0075 ± 0.015 | 0.0075 ± 0.039 | 0.071 ± 0.038 | 0.039 ± 0.023 | -0.0305 ± 0.011 |
| LPS:IL-1alpha | -0.0515 ± 0.096 | -0.0355 ± 0.023 | 0.0225 ± 0.036 | -0.0175 ± 0.019 | 0.0255 ± 0.047 | -0.002 ± 0.0057 | -0.0265 ± 0.0078 | 0.006 ± 0.047 | -0.038 ± 0.0071 | -0.02 ± 0.0085 | -0.0065 ± 0.023 | -0.047 ± 0.033 | -0.0405 ± 0.037 | -0.0165 ± 0.032 | -0.0135 ± 0.00071 | -0.022 ± 0.011 | 0.0345 ± 0.0092 | 0 ± 0.045 | -0.011 ± 0.016 | -0.0615 ± 0.013 |
| LPS:M-CSF | 0.022 ± 0.02 | 0.006 ± 0.0042 | -0.0285 ± 0.039 | -0.0055 ± 0.0064 | 0.023 ± 0.0042 | -0.028 ± 0.024 | -0.008 ± 0.018 | -0.007 ± 0.038 | -0.001 ± 0.042 | -0.007 ± 0.014 | -0.003 ± 0.035 | 0.006 ± 0.0028 | -0.027 ± 0.0014 | -0.0005 ± 0.037 | -0.015 ± 0.0042 | -0.018 ± 0.031 | 0.007 ± 0.067 | 0.0085 ± 0.0035 | -0.005 ± 0.021 | -0.006 ± 0.025 |
